# Measured values reported in patent US8349571B2, “High content screening” (Cellaura Technologies Limited, priority 2004, dated 2013).
# Legend:
# Assay type in all cases: cell-based
# [1] = biological target: T1, human A1-AR (Homo sapiens, UniProt P30542); assay: c-fos-pGL3 luciferase reporter functional study in CHO-A1fos cells
# T1 construct: expressed in transfected cells; host or cells: CHO-K1 (CHO-A1fos)
# T1 sequence (P30542 1-326): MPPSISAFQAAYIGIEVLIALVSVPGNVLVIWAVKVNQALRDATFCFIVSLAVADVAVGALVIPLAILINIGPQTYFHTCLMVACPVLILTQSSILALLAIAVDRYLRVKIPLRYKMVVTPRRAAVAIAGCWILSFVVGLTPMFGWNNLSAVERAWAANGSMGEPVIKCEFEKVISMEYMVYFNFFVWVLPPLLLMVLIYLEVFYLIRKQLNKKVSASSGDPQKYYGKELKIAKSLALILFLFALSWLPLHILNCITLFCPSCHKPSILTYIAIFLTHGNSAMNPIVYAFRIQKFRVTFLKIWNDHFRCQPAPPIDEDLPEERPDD
# Protocol: (§1) Functional studies were performed in CHO-K1 cells expressing both the human A1-AR and a c-fos-pGL3 reporter vector (CHO-A1fos cells). […] Luciferase expression was quantified using a Luclite® kit according to manufacturer's instructions. Live cell confocal imaging was carried out on CHO-A1 cells or CHO cells expressing the A1-AR tagged on the C-terminus with a green fluorescent protein (CHO-A1Tpz).
# [2] = biological target: T1, human A1-AR; assay: Live cell confocal imaging of fluorescent ligand binding in CHO-A1 cells; details: 100 nM BY630-ABEA
# Protocol: as §1
# [3] = biological target: T2, A1-AR tagged on the C-terminus with a green fluorescent protein (Homo sapiens, UniProt P30542); assay: Live cell confocal imaging in CHO cells expressing A1-AR tagged with green fluorescent protein (CHO-A1Tpz)
# T2 construct: expressed in transfected cells; host or cells: CHO (CHO-A1Tpz)
# T2 sequence (P30542 1-326): T1 sequence (P30542 1-326)
# Protocol: as §1
compound,measurement,setting,value
"CCCn1c(=O)c2[nH]c(C3CCCC3)nc2n(CCC)c1=O [DPCPX, 8-cyclopentyl-1,3-dipropylxanthine, reference compound]",effect on the response to BY630-ABEA,"[1]; 100 nM DPCPX, n=3",completely blocked the response to BY630-ABEA
same,effect of preincubation on BY630-ABEA membrane binding,"[2]; DPCPX 1 μM, 30 min preincubation",substantially reduced
NECA-BODIPY 630/650 [BY630-ABEA],"pEC50, stimulation of luciferase expression","[1]; CHO-A1fos cells, 5 h agonist stimulation, mean s.e.mean",6.76±0.18
same,time after which binding of ligand to the membrane was detectable,"[2]; CHO-A1 cells, n=3",5 min
same,time after which binding of ligand to the membrane was substantial,"[2]; CHO-A1 cells, n=3",30 min
same,specificity of ligand binding from overlaid red and green channel images (FIG. 4B),"[3]; 100 nM, 30′, CHO cells (A1-R-Topaz)",ligand binding is specific to receptors
same,co-localisation of ligand fluorescence with tagged receptor,[3]; CHO-A1Tpz cells,co-localisation of ligand fluorescence at the membrane with that from the fluorescently tagged A1-AR
XAC-BODIPY 630/650 [BODIPY-XAC],specificity of ligand binding from overlaid red and green channel images (FIG. 4A),"[3]; 50 nM, 15′, CHO cells (A1-R-Topaz)",ligand binding is specific to receptors
